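In this assay, cells in 96-well plates receive the compound at five concentrations for 48 hours. Endpoints are linearly interpolated between the surrounding concentrations. GI50 marks 50% less growth. At the TGI there is no net growth.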
Experiments:
Assay in all cases: inhibition of tumour cell growth, NCI panel, 48 h
[1] = system: RXF 393 renal
[2] = system: MOLT-4 leukemia
[3] = system: SNB-19 CNS
[4] = system: SNB-75 CNS
[5] = system: ACHN renal
[6] = system: IGROV1 ovarian
[7] = system: SF-295 CNS
[8] = system: OVCAR-4 ovarian
[9] = system: HT29 colon
[10] = system: MCF7 breast
[11] = system: OVCAR-5 ovarian
[12] = system: A549 NSCLC
[13] = system: HOP-92 NSCLC
[14] = system: MDA-MB-231 breast
[15] = system: SF-268 CNS
[16] = system: U251 CNS
[17] = system: EKVX NSCLC
[18] = system: SN12C renal
[19] = system: HOP-62 NSCLC
[20] = system: OVCAR-3 ovarian
[21] = system: SK-OV-3 ovarian
[22] = system: MALME-3M melanoma
[23] = system: TK-10 renal
[24] = system: M14 melanoma
[25] = system: HCT-15 colon
[26] = system: A498 renal
[27] = system: HL-60(TB) leukemia
[28] = system: HCT-116 colon

For `C[C@H]1c2cccc(O)c2C(O)=C2C(=O)[C@]3(O)C(O)=C(C(N)=O)C(=O)[C@@H](N(C)C)[C@@H]3[C@@H](O)[C@@H]21`, the GI50 [1] was 3.79 µM, the TGI [1] was 33.9 µM and the GI50 [2] was 3.57 µM. The TGI [2] was 15 µM, the GI50 [3] was 3.02 µM and the TGI [3] was 14.5 µM. For the same compound, the GI50 [4] was 1.81 µM, the TGI [4] was 6.66 µM and the GI50 [5] was 3.53 µM. The TGI [5] was 23.9 µM, the GI50 [6] was 2.86 µM and the TGI [6] was 9.26 µM. The GI50 [7] was 2 µM, the TGI [7] was 5.69 µM and the GI50 [8] was 3.34 µM. For the same compound, the TGI [8] was 42.1 µM, the GI50 [9] was 3.43 µM and the TGI [9] was 11.9 µM. It also gave a GI50 [10] of 3.51 µM, a TGI [10] of 28.2 µM and a GI50 [11] of 5.22 µM. For the same compound, the TGI [11] was 95.4 µM, the GI50 [12] was 3.22 µM and the TGI [12] was 13.2 µM. The GI50 [13] was 2.35 µM, the TGI [13] was 6.18 µM and the GI50 [14] was 3.39 µM. For the same compound, the TGI [14] was 13.5 µM, the GI50 [15] was 3.33 µM and the TGI [15] was 12.1 µM. The GI50 [16] was 2.98 µM, the TGI [16] was 11.9 µM and the GI50 [17] was 3.31 µM. The TGI [17] was 15.5 µM, the GI50 [18] was 3.06 µM and the TGI [18] was 14.5 µM. The GI50 [19] was 2.76 µM, the TGI [19] was 10.8 µM and the GI50 [20] was 2.5 µM. For the same compound, the TGI [20] was 6.85 µM, the GI50 [21] was 3.38 µM and the TGI [21] was 14.3 µM. It also gave a GI50 [22] of 2.76 µM, a TGI [22] of 8.57 µM and a GI50 [23] of 4.83 µM. For the same compound, the TGI [23] was 47.2 µM, the GI50 [24] was 3.28 µM and the TGI [24] was 12.6 µM. For the same compound, the GI50 [25] was 3.46 µM, the TGI [25] was 16 µM and the GI50 [26] was 2.86 µM. The TGI [26] was 10.4 µM, the GI50 [27] was 2.3 µM and the TGI [27] was 6.56 µM. For the same compound, the GI50 [28] was 2.89 µM.
